Test results taken from publication PMC4267740, “Unprecedented Therapeutic Potential with a Combination of A2A/NR2B Receptor Antagonists as Observed in the 6-OHDA Lesioned Rat Model of Parkinson's Disease” (PLoS ONE, 2014).
“And” between values parts separate entries of the source, which are not always exact repeats. Equal values may be shown once. “Also recorded” adds a separate entry of the source. Read-outs that look alike come from different tables or passages of the source.

What was measured:
[1] = test system: unilateral 6-OHDA-lesioned rats; experiment: Rearing counts in actometers, monotherapy (without L-Dopa); type: in vivo, rat; conditions: Co-101244 1 mg/kg ip
Experimental: (§1) To protect norepinephrinergic neurons, animals were administered imipramine HCl (Sigma) 15 minutes before surgery. They were subsequently anesthetized with ketamine (Ceva, 75 mg/kg) and xylazine (Bayer, 10 mg/kg) and placed in stereotaxic frame (David Kopf Instrument). 6-OHDA was injected into the right ascending medial forebrain bundle at the following coordinates (in mm) relative to bregma and surface of the dura, AP = −3.5, ML = −1.5, DV = −8.7. Each rat received one injection of 6-OHDA (4 µg/µl) over a period of 5 minutes (0.5 µl/min) for a total of 10 µg per rat. Animals were monitored for 3 weeks to ensure full recovery and habituation to the environment and experimenters.
(§2) On day 21 post surgery, all rats were challenged with a small dose of subcutaneously administered apomorphine (Sigma, 0.05 mg/kg). Rats showing more than 90 contralateral rotations (360°) over a 45-minute recording period were included in the study. […] For each experiment, rats were allocated to the different experimental groups in order to get the same mean level of basal activity measured at the apomorphine challenge amongst the different experimental groups.
(§3) Drug-naïve separate rats were tested individually in clear acrylic chambers (LE8811 IR, Panlab). Locomotion was detected and measured by 16 infrared light-beam sensors located on each side of the enclosure at a height of 3 cm. Sensors were spaced such that the light beams formed a matrix of 15×15 squares over the surface. Activity counts were recorded on a computer and Acti-Track software (Actitrack, Panlab) was used to convert raw data into “distance traveled” and “rearing counts” for analysis as relevant dependent variables.
(§4) Six different combinations of A2A/NR2B antagonists were tested without L-Dopa. For each combination, there were four different procedures: vehicle only; A2A antagonist followed by vehicle; vehicle followed by the NR2B antagonist and A2A antagonist followed by the NR2B antagonist. The drugs, doses and combinations are described in Table 3. After drug administration, rats were placed in actometers (open-field) for monitoring the general level of motor activity (distance traveled and rearing counts).
(§5) Before undertaking the study, each A2A and NR2B antagonist was tested individually. The doses were selected on the basis of preliminary dose-response curves performed separately for each drug and submaximal dose (i.e. response observed is not at its maximal level) of each drug was selected for the combination studies. The two drugs were administered separately via an intraperitoneal (ip) injection with a 2-minute interval between the two drugs. Five minutes after the second injection, animals were placed in the testing cage for behavioural recording. Due to formulation and exposure issues, Tozadenant and Radiprodil had to be administered orally and therefore recording was started 60 minutes post dosing at this corresponds to maximum plasma concentrations. Eight drug-naïve animals were used for each of the four procedures; 32 in total for each combination. All behavioral experiments were conducted between 8.00 AM and 2.00 PM at the latest. Preliminary pharmacokinetic assays investigated the plasma and brain disposition of selected drugs administered alone or in combination (ie. Tozadenant/Radiprodil, and Sch-58261/Co-101244; 3 animals per group). Tozadenant and Radiprodil were measured in samples obtained 60 minutes after single oral administration at 30 mg/kg. Sch-58261 and Co-101244 were measured in samples collected 90 min after single intraperitoneal administration at 3 mg/kg.
(§6) The effects of A2A and NR2B antagonists on the level of motor activity (i.e. distance traveled and rearing counts) were assessed with three-way mixed ANOVA, combining the A2A receptor antagonist (2 levels, vehicle and the A2A drug) and the NR2B antagonist (2 levels, vehicle and the NR2B drug) as between-group factors with the time as within-subjects factor (6 or 9 levels). […]

[2] = Plasma and brain exposure in satellite lesioned rats; type: in vivo, rat; conditions: 90 min after dosing, mean ± SD
Experimental: Satellite lesioned rats (400–450 g) were anesthetized with isoflurane and sacrificed by exsanguination. Blood samples were collected in EDTA centrifuged 10 min at 3000 rpm at 4°C to obtain plasma and stored at −20°C prior the analysis. Brains were perfused by saline collected and immediately stored at −20°C prior the analysis. Brain samples were added to 4 volumes of water before being homogenized. A structural analog compound was added as internal standard to the samples and proteins were crashed using 8 volumes of acetonitrile. Compounds were analyzed on an API5000 mass spectrometer (ABSciex, Framingham, MA, USA.) equipped with a turbo ion spray source and interfaced with an Agilent 1290 Infinity LC system (Agilent Technologies, Waldbroon, Germany). The mass spectrometer was operated in the positive ionization mode with Multiple Reactions Monitoring used to quantify the various analytes (407 to 292 for Tozadenant; 398 to 109 for Radiprodil, 346 to 105 for Sch-58261 and 342 to 100 for Co-101244). A Waters HSS T3 column (2.1×30 mm, 1.8 µm) was used. The mobile phase consisted of 100% water with 0.1% formic acid (phase A) and 100% acetonitrile with 0.1% formic acid (phase B). The flow rate was 1 mL/min. A linear gradient was performed from 0 to 1 min (95 to 30% phase A), a jump to 90% B in 0.01 min, a hold period of 1.29 min at 90% phase B followed by equilibration at the initial condition was applied before the following injection.
as §5

[3] = test system: unilateral 6-OHDA-lesioned rats; experiment: Distance traveled in actometers, monotherapy (without L-Dopa); type: in vivo, rat; conditions: Co-101244 1 mg/kg ip
Experimental: as §1, §2, §3, §4, §5, §6

[4] = test system: unilateral 6-OHDA-lesioned rats; experiment: L-Dopa-induced contralateral rotations in rotometers, add-on therapy; type: in vivo, rat; conditions: add-on to L-Dopa 25 mg/kg ip, Sch-58261 0.3 mg/kg ip, Co-101244 1 mg/kg ip
Experimental: as §1, §2
The rats tested one week earlier for general activity (actometers) were once again placed in clear acrylic individual chambers (50×45 cm) with the same treatment (drug and dose) than that previously received plus L-Dopa. Eight chambers were placed on a level, clear glass bottom, held by a robust frame, and were subdivided into four individual test cages of 25×22 cm. A removable acrylic plate served as a lid.
Rotational behaviour was recorded using a home-made computerized system. Rats were fixed in a harness and linked to mechanical sensors connected directly to a computer. Each 360° clock-wise or counter clock-wise turn was automatically recorded for up to 120 minutes at the maximum. Throughout the experiments, rats were allocated to individual test cages.
Four different combinations were administered as add-on treatment to a low active dose of L-Dopa (25 mg/kg, ip) without any dopa decarboxylase inhibitor to avoid any additional pharmacokinetic interaction. The doses of the compounds were selected on the basis of preliminary dose-response curves performed separately for each drug. To avoid ceiling effect with L-Dopa, only submaximal doses of each drug were selected for testing (as it was done previously for monotherapy). Eight L-Dopa naïve animals were tested for each of the four pharmacological condition: vehicle and L-Dopa (25 mg/kg); A2A antagonist followed by vehicle and L-Dopa; vehicle followed by NR2B antagonist and L-Dopa; A2A antagonist followed by NR2B and L-Dopa. Due to the dominance of the L-Dopa-effect on the lesioned striatum, the unilateral 6-OHDA-lesioned rats rotated after the drugs administration and behavioral activity was recorded in rotometers (i.e. level of contralateral rotations).
All drugs were administered i.p. 25 minutes before behavioural recording, except for the Tozadenant and Radiprodil combination which was administered orally 60 minutes before behavioural recording. As Radiprodil was administered orally, L-Dopa was given 45 minutes after the Radiprodil injection whereas for the other combinations L-Dopa was given 15 minutes after the NR2B drug. The drugs, the doses and the combinations given in co-administration to L-Dopa are described in Table 4 .
The impact of treatment with A2A or NR2B receptor antagonists, given alone or in combination, on the effect of L-Dopa on contralateral rotations was also analysed with a three-way mixed ANOVA. The ANOVA included the A2A and the NR2B receptor antagonists (both, 2 levels, vehicle and the drug) as between-group factors combined with time (12 levels) as within-subjects factor. […] The ability of the combination to increase and prolong the activity of L-Dopa was also explored. Consequently, drug effects were analyzed for every 10-min time interval. […]

[5] = test system: NR2B; design: method as in PMID 10454475, PMID 10425109; conditions: TEVC recording; cited from earlier work
[6] = test system: NR2B; conditions: In vitro Binding; cited from earlier work

Cc1ccc(CC2(O)CCN(CCOc3ccc(O)cc3)CC2)cc1 [Co-101244]
Rearing counts, drugs alone vs vehicle, p (Newman-Keuls) ([1]; Istradefylline 0.3 mg/kg ip): Co-101244, not significant
Rearing counts, drugs main effect, p (three-way mixed ANOVA) ([1]; Istradefylline 0.3 mg/kg ip): Not significant
Rearing counts, drugs × time effect, p (three-way mixed ANOVA) ([1]; Istradefylline 0.3 mg/kg ip): p<0.01
Rearing counts, drugs main effect, p (three-way mixed ANOVA) ([1]; Sch-58261 1 mg/kg ip): p<0.001
Rearing counts, drugs × time effect, p (three-way mixed ANOVA) ([1]; Sch-58261 1 mg/kg ip): p<0.001
Plasma concentration ([2]; administered alone, ip 3 mg/kg, 3 animals (Co-101244 n = 2)): 54.7 (n = 2) ng/mL
Plasma concentration ([2]; administered in combination Sch-58261+Co-101244, both ip 3 mg/kg, 3 animals): 55.4 ± 8.32 ng/mL
Distance traveled, drugs alone vs vehicle, p (Newman-Keuls) ([3]; Istradefylline 0.3 mg/kg ip): not all drugs when administered alone improved distance traveled; also recorded: Not significant
Distance traveled, drugs main effect, p (three-way mixed ANOVA) ([3]; Istradefylline 0.3 mg/kg ip): p<0.05
Distance traveled, drugs × time effect, p (three-way mixed ANOVA) ([3]; Istradefylline 0.3 mg/kg ip): p<0.001
Distance traveled, drugs main effect, p (three-way mixed ANOVA) ([3]; Sch-58261 1 mg/kg ip): p<0.001
Distance traveled, drugs × time effect, p (three-way mixed ANOVA) ([3]; Sch-58261 1 mg/kg ip): p<0.001
Contralateral rotations, drugs main effect, p (three-way mixed ANOVA) [4]: Not significant
Contralateral rotations, drugs × time effect, p (three-way mixed ANOVA) [4]: p<0.001
IC50 [5]: 26 nM and 43 nM
IC50 [6]: 4 nM
